The text below walks through data of patent publication US20070011757A1, “Transgenic rodents as animal models for modulation of B1 bradykinin receptor protein” (priority 2001, published 2007).

One test concerns the target T1, endogenous B1 receptor (Rattus norvegicus, UniProt P97583).
T1 construct: DALK in non-transgenic control rats; from tissue; host or cells: brain and spinal cord sections (and whole-brain homogenate) of non-transgenic Sprague-Dawley rats
T1 sequence (P97583 1-337): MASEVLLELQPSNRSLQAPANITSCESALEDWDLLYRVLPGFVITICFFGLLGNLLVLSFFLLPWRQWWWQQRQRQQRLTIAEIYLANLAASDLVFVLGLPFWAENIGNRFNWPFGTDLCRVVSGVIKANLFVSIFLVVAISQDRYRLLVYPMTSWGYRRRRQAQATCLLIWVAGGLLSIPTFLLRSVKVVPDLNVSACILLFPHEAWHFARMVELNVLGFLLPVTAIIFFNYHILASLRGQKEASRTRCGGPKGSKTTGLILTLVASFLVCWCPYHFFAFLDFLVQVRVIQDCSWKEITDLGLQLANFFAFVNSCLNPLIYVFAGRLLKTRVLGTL
In words: Autoradiography of [3H]DALK binding in brain and spinal cord sections of non-transgenic rats. Conditions: non-transgenic control rats, 0.3 nM radioligand.

Test [1] has as its target T2, human B1 bradykinin receptor (Homo sapiens, UniProt P46663).
T2 construct: from tissue; host or cells: whole-brain membranes of transgenic Sprague-Dawley rats carrying Construct #1
T2 sequence (P46663 1-353): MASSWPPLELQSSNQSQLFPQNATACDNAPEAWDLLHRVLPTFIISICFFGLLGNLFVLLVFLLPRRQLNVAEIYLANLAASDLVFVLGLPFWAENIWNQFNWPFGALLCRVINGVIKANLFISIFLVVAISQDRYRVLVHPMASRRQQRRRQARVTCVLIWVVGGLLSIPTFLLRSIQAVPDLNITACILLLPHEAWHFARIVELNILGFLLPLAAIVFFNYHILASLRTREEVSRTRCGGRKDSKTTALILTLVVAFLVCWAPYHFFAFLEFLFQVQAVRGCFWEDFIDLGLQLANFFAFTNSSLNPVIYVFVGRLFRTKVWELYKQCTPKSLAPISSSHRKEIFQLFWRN
In words: 3H-DALK binding to membranes from transgenic rat brain tissue. The method, then: Also important in these assays is the low expression level of endogenous B1 receptor in neuronal tissue. Briefly, transgenic animals from line 0004, 0014, and 0015 (all females) were decapitated following anesthesia and the whole brain was removed, bisected sagitally and the entire 1⁄2 brain weighed. Weights were as follows: line 0004 (813 mg), line 0014 (851 mg), and 0015 (843 mg). The brain tissue was homogenized with a Polytron in ice cold 50 mM Tris-HCl, 1 mM EDTA, 1 mM o-phenanthroline, pH 7.4. The homogenate was centrifuged at 50,000×g for 20 minutes. The pellet was resuspended and homogenized a second time in Tris buffer, and the centrifugation step was repeated. The final pellet was resuspended in assay buffer (20 mM HEPES, 120 mM NaCl, 5 mM KCl, 1 mM o-phenanthroline, 0.2 uM of […] form and active metabolite of […] added to inhibit angiotensin converting enzyme), 100 μg/ml bacitracin, 3 μM amastatin, 1 μM phosphoramidon, 0.1% BSA, pH 7.4. The assay was carried out in a 0.5 ml volume at room temperature for sixty minutes with 10 mg wet weight tissue/tube. Total protein was determined using a Bio Rad DC assay kit. […] FIG. 9A, 9B and 9C show measurements of the amount of total, nonspecific and specific binding of ^3H-DALK to transgenic rat brain tissue which expresses human B1 bradykinin receptor. […] In contrast, no B1 receptor is detected in the brains of non-transgenic rats. The Ki values determined for three standard lead compounds in Line 0004 are very similar to those obtained at the cloned hB1 receptor expressed in CHO cells. Therefore, expression of the human B1 bradykinin receptor in Line 0004 has the properties expected for the human B1 receptor.

Take [des-Arg^10, Leu^9]-Kallidin [^3H-DALK]: the results for the specific binding result on endogenous B1 receptor and at endogenous B1 receptor (listed as [H-3] DALK) were “did not show any specific binding signal” and “no detectable specific binding”, respectively. Besides, the “affinity for the human B1 receptor relative to the rat B1 receptor” value in test [1] is on record as “greater affinity”. The selectivity result in test [1] (printed as 'approximately 40 fold selective for this ligand') is “approximately 40 fold”. The “expression (specific binding of 3H-DALK, saturation binding)” value in test [1] (transgenic rat Line 0004 brain membranes, FIG. 9A) came out at 40 fmol/mg protein; in test [1] (transgenic rat Line 0014 brain membranes, FIG. 9B), 4 fmol/mg protein; in test [1] (transgenic rat Line 0015 brain membranes, FIG. 9C) it was 7 fmol/mg protein. For the same substance, the “binding site in transgenic rats expressing the human B1 receptor” value in test [1] (whole brain homogenate assay or receptor autoradiography of brain slices) is reported as “readily detectable”.
